Row | SMILES | melting point
1 | Cc1ccnc2c1C(=NNC(=N)N)CC(c1cc(Cl)sc1Cl)C2.O=[N+]([O-])O (centres unmarked) | 167 °C (dec.)
2 | CS(=O)(=O)O.N=C(N)NN=C1CC(c2ccccc2Cl)Cc2nncc(C(F)(F)F)c21 (centres unmarked) | 207 to 208 °C
3 | Cc1cc2c([nH]1)CC(c1ccccc1)CC2=NNC(=N)N.Cl (centres unmarked) | 215 °C (dec.)
4 | Cl.N=C(N)NN=C1CC(c2ccccc2)Cc2[nH]ccc21 (centres unmarked) | 192 to 194 °C
5 | Cc1cn(S(C)(=O)=O)c2c1C(=NNC(=N)N)CC(c1ccccc1Cl)C2.Cl (centres unmarked) | 258 °C (dec.)
6 | Cl.N=C(N)NN=C1CC(c2ccccc2)Cc2[nH]c(=O)ccc21 (centres unmarked) | ≥ 300 °C
7 | Cc1nn(CCCc2ccccc2)c2c1C(=NNC(=N)N)CC(c1ccccc1Cl)C2.Cl (centres unmarked) | 210 °C (dec.)
8 | Cl.N=C(N)NN=C1CC(c2ccccc2)Cc2c1ccn2Cc1ccccc1 (centres unmarked) | 142 °C (dec.)
9 | Cl.N=C(N)N/N=C1\CC(c2ccccc2)Cc2occ(C(F)(F)F)c21 (centres unmarked) | 291 °C (dec.)
10 | Cc1cn(C)c2c1C(=NNC(=N)N)CC(c1ccccc1)C2.Cl (centres unmarked) | 230 °C (dec.)
11 | Cc1ccnc2c1C(=NNC(=N)N)CC(c1cc(Cl)sc1Cl)C2.Cl (centres unmarked) | ≥ 300 °C
12 | CS(=O)(=O)O.Cc1ccnc2c1C(=NNC(=N)N)CC(c1cc(Cl)sc1Cl)C2.O (centres unmarked) (hydrate or solvate) | 239 to 241 °C
13 | Cc1ccnc2c1C(=NNC(=N)N)CC(c1cc(Cl)sc1Cl)C2.O=S(=O)(O)O (centres unmarked) | 239 to 242 °C
14 | Cc1ccnc2c1C(=NNC(=N)N)CC(c1cc(Cl)sc1Cl)C2 (racemic) [Compound 108, (±)-7-(2,5-dichlorothiophen-3-yl)-5-guanidinoimino-4-methyl-5,6,7,8-tetrahydroquinoline] | 250 to 251 °C
15 | Cl.N=C(N)NN=C1CC(c2ccccc2)Cc2c1ccn2C(=O)c1ccccc1 (centres unmarked) | 168 °C (dec.)
16 | Cc1c[nH]c2c1C(=NNC(=N)N)CC(c1ccccc1)C2.Cl (centres unmarked) | 176 °C (dec.)
17 | Cc1nn(CCc2ccccc2)c2c1C(=NNC(=N)N)CC(c1ccccc1Cl)C2.Cl (centres unmarked) | 152 to 154 °C
18 | Cc1cn(S(C)(=O)=O)c2c1C(=NNC(=N)N)CC(c1ccccc1)C2.Cl (centres unmarked) | 260 °C (dec.)
19 | Cl.N=C(N)N/N=C1\CC(c2ccccc2)Cc2occ(C(N)=O)c21 (centres unmarked) | 294 °C (dec.)

Row | SMILES | melting point
20 | CCOC(=O)c1coc2c1/C(=N/NC(=N)N)CC(c1ccccc1)C2.Cl (centres unmarked) | 260 °C (dec.)
21 | Cc1ccnc2c1C(=NNC(=N)N)CC(c1cc(Cl)sc1Cl)C2 (single isomer, unassigned; (-)) [Compound 112, (−)-7-(2,5-dichlorothiophen-3-yl)-5-guanidinoimino-4-methyl-5,6,7,8-tetrahydroquinoline] | 129 to 133 °C
22 | CS(=O)(=O)n1ccc2c1CC(c1ccccc1)CC2=NNC(=N)N.Cl (centres unmarked) | 270 °C (dec.)
23 | Cl.N=C(N)NN=C1CC(c2ccccc2Cl)Cc2nncc(-c3ccc(Cl)cc3)c21 (centres unmarked) | 196 °C (dec.)
24 | CCc1cn(S(C)(=O)=O)c2c1C(=NNC(=N)N)CC(c1ccccc1)C2.Cl (centres unmarked) | 260 °C (dec.)
25 | Cc1coc2c1/C(=N/NC(=N)N)CC(c1ccccc1C(F)(F)F)C2.Cl (centres unmarked) | 275 °C (dec.)
26 | Cl.Cn1ccc2c1CC(c1ccccc1)CC2=NNC(=N)N (centres unmarked) | 205 °C (dec.)
27 | Cc1cn(S(C)(=O)=O)c2c1C(=NNC(=N)N)CC(c1ccccc1F)C2.Cl (centres unmarked) | 286 °C (dec.)
28 | Cc1coc2c1/C(=N/NC(=N)N)CC(c1ccc(F)cc1)C2.Cl (centres unmarked) | 277 °C (dec.)
29 | Cl.N=C(N)N/N=C1\CC(c2ccccc2Br)Cc2occ(C(F)(F)F)c21 (centres unmarked) | 289 °C (dec.)
30 | Cc1c2c(nn1-c1ccccc1)CC(c1ccccc1Cl)CC2=NNC(=N)N.Cl (centres unmarked) | 192 to 194 °C
31 | Cc1ccc(C2Cc3occc3/C(=N/NC(=N)N)C2C)s1.Cl (centres unmarked) | 287 °C (dec.)
32 | Cc1cc(=O)[nH]c2c1C(=NNC(=N)N)CC(c1ccsc1)C2.Cl (centres unmarked) | ≥ 300 °C
33 | CS(=O)(=O)O.Cc1ccnc2c1C(=NNC(=N)N)CC(c1cc(Cl)sc1Cl)C2 (centres unmarked) [Compound 111] | 225 to 229 °C
34 | Cl.N=C(N)NN=C1CC(c2ccccc2Cl)Cc2[nH]nc(-c3ccccc3)c21 (centres unmarked) | 185 °C (dec.)
35 | Cc1c2c(nn1CCCc1ccccc1)CC(c1ccccc1Cl)CC2=NNC(=N)N.Cl (centres unmarked) | 170 to 180 °C
36 | Cc1cc(=O)n(C)c2c1C(=NNC(=N)N)CC(c1ccsc1)C2.Cl (centres unmarked) | 156 to 157 °C
37 | Cc1ccc(S(=O)(=O)n2ccc3c2CC(c2ccccc2)CC3=NNC(=N)N)cc1.Cl (centres unmarked) | 252 to 256 °C

Continued, values first:

Row | melting point | SMILES
38 | 198 to 200 °C | Cc1cc(Cl)c(C2CC(=NNC(=N)N)c3c(C)ccnc3C2)s1.Cl (centres unmarked)
39 | 278 to 280 °C (dec.) | Cc1cnnc2c1C(=NNC(=N)N)CC(c1ccsc1)C2.Cl (centres unmarked)
40 | 266 °C (dec.) | Cc1ccccc1C1CC(=NNC(=N)N)c2c(C)coc2C1.Cl (centres unmarked)
41 | 267 °C (dec.) | Cc1ccnc2c1C(=NNC(=N)N)CC(c1ccncc1)C2.Cl (centres unmarked)
42 | 278 °C (dec.) | Cc1coc2c1C(=NNC(=N)N)CC(c1ccc(F)cc1F)C2.Cl (centres unmarked)
43 | 286 °C (dec.) | Cc1ccnc2c1C(=NNC(=N)N)CC(c1ccc(F)cc1F)C2.Cl (centres unmarked)
44 | 282 °C (dec.) | Cc1ccnc2c1C(=NNC(=N)N)CC(c1nccs1)C2.Cl (centres unmarked)
45 | 228 to 230 °C | Cc1ccccc1C1CC(=NNC(=N)N)c2c(C)cn(S(C)(=O)=O)c2C1.Cl (centres unmarked)
46 | 193 to 196 °C | Cc1cc(Cl)sc1C1CC(=NNC(=N)N)c2c(C)ccnc2C1.Cl (centres unmarked)
47 | 202 to 205 °C | Cc1ccc(F)cc1C1CC(=NNC(=N)N)c2c(C)ccnc2C1.Cl (centres unmarked)
48 | 203 to 204 °C (dec.) | Cc1ccccc1C1=CC(=NNC(=N)N)c2c(C)ccnc21.Cl
49 | 259 °C (dec.) | Cc1ccnc2c1C(=NNC(=N)N)CC(c1ccc(F)cc1)C2.Cl (centres unmarked)
50 | ≥ 300 °C | Cc1ccnc2c1C(=NNC(=N)N)CC(c1c(Cl)cccc1Cl)C2.Cl (centres unmarked)
51 | 260 °C (dec.) | Cc1ccnc2c1C(=NNC(=N)N)CC(c1ccccn1)C2.Cl (centres unmarked)
52 | 235 °C (dec.) | Cc1coc2c1C(=NNC(=N)N)CC(c1ccc(Br)cc1)C2.Cl (centres unmarked)
53 | 235 to 236 °C | Cc1ccc(C)c(C2C/C(=N\NC(=N)N)c3c(C)coc3C2)c1.Cl (centres unmarked)
54 | 242 to 244 °C | Cc1nc(C)c2c(n1)CC(c1ccccc1Cl)C/C2=N\NC(=N)N.Cl (centres unmarked)
55 | 247 °C (dec.) | Cc1ccccc1C1CC(=NNC(=N)N)c2c(C(F)(F)F)coc2C1.Cl (centres unmarked)
56 | 268 °C (dec.) | Cc1ccnc2c1C(=NNC(=N)N)CC(c1cc(F)ccc1Cl)C2.Cl (centres unmarked)
57 | 210 °C (dec.) | Cc1cnnc2c1C(=NNC(=N)NO)CC(c1ccccc1Cl)C2.Cl (centres unmarked)
58 | 270 to 272 °C | Cc1ccnc2c1C(=NNC(=N)N)CC(c1cccc(Cl)c1Cl)C2.Cl (centres unmarked)
59 | 240 to 243 °C | Cc1ccc(Cl)c(C2CC(=NNC(=N)N)c3c(C)ccnc3C2)c1.Cl (centres unmarked)
60 | 184 to 187 °C | Cc1ccnc2c1C(=NNC(=N)N)CC(c1sc(Cl)cc1Cl)C2.Cl (centres unmarked)
61 | 249 to 250 °C | Cc1c[n+]([O-])nc2c1C(=NNC(=N)N)CC(c1ccccc1Cl)C2.Cl (centres unmarked)
62 | 285 °C (dec.) | Cc1coc2c1/C(=N/NC(=N)N)CC(c1cccc(Br)c1)C2.Cl (centres unmarked)
63 | 296 °C (dec.) | Cc1coc2c1/C(=N/NC(=N)N)CC(c1ccccc1Br)C2.Cl (centres unmarked)
64 | 194 to 196 °C (dec.) | Cc1ccnc2c1C(=NNC(=N)NO)CC(c1cc(Br)sc1Br)C2.Cl (centres unmarked)
65 | 190 to 192 °C (dec.) | Cc1ccc(C)c(C2CC(=NNC(=N)NO)c3c(C)ccnc3C2)c1.Cl (centres unmarked)

Row | melting point | SMILES
66 | 248 °C (dec.) | CS(=O)(=O)O.Cc1ccnc2c1C(=NNC(=N)N)CC(c1cc(Cl)ccc1Cl)C2 (centres unmarked)
67 | ≥ 300 °C | COc1ccc(F)cc1C1CC(=NNC(=N)N)c2c(C)ccnc2C1.Cl (centres unmarked)
68 | 211 °C (dec.) | Cc1ccccc1C1CC(=NNC(=N)N)c2c(C)n[nH]c2C1.Cl (centres unmarked)
69 | 196 to 197 °C (dec.) | Cc1ccnc2c1C(=NNC(=N)NO)CC(c1cc(Cl)sc1Cl)C2.Cl (centres unmarked)
70 | 185 to 187 °C | Cc1ccnc2c1C(=NNC(=N)NO)CC(c1ccccc1Cl)C2.Cl (centres unmarked)
71 | 205 to 209 °C | COc1ccc(Cl)cc1C1CC(=NNC(=N)N)c2c(C)ccnc2C1.Cl (centres unmarked)
72 | 194 to 196 °C | CS(=O)(=O)O.Cc1ccnc2c1C(=NNC(=N)N)CC(c1ccccc1Cl)C2 (centres unmarked) [Compound 65]
73 | ≥ 300 °C | Cc1cc(=O)[nH]c2c1C(=NNC(=N)N)CC(c1ccccc1Cl)C2.Cl (centres unmarked)
74 | 300 °C (dec.) | Cc1coc2c1/C(=N/NC(=N)N)CC(c1ccccc1Cl)C2.Cl (centres unmarked)
75 | 286 °C (dec.) | Cc1coc2c1/C(=N/NC(=N)N)CC(c1cccc(Cl)c1Cl)C2.Cl (centres unmarked)
76 | 272 to 273 °C | Cc1ccnc2c1C(=NNC(=N)N)CC(c1cc(Br)sc1Br)C2.Cl (centres unmarked)
77 | 227 °C (dec.) | Cc1cc(C)c2c(n1)CC(c1ccccc1Cl)CC2=NNC(=N)N.Cl (centres unmarked)
78 | 233 °C (dec.) | Cc1ccnc2c1C(=NNC(=N)N)CC(c1ccccc1Br)C2.Cl (centres unmarked)
79 | ≥ 300 °C | Cc1ccnc2c1C(=NNC(=N)N)CC(c1cc(Cl)ccc1Cl)C2.Cl (centres unmarked)
80 | 168 °C (dec.) | Cc1n[nH]c2c1C(=NNC(=N)N)CC(c1ccccc1O)C2.Cl (centres unmarked)
81 | 172 to 176 °C | CS(=O)(=O)O.Cc1ccnc2c1C(=NNC(=N)N)CC(c1sc(Cl)cc1Cl)C2 (centres unmarked) [Compound 144]
82 | 288 °C (dec.) | Cc1coc2c1/C(=N/NC(=N)N)CC(c1ccccc1F)C2.Cl (centres unmarked)
83 | ≥ 300 °C | Cc1ccnc2c1C(=NNC(=N)N)CC(c1ccsc1)C2.Cl (centres unmarked)
84 | 279 °C (dec.) | COc1ccccc1C1C/C(=N\NC(=N)N)c2c(C)coc2C1.Cl (centres unmarked)
85 | 260 °C (dec.) | Cc1ccc(C2CC(=NNC(=N)N)c3c(C)coc3C2)cc1.Cl (centres unmarked)
86 | 206 °C (dec.) | Cc1ccc2c(n1)CC(c1ccccc1C)CC2=NNC(=N)N.Cl (centres unmarked)
87 | 168 to 172 °C | CS(=O)(=O)O.Cc1ccnc2c1C(=NNC(=N)N)CC(c1sc(Cl)cc1Cl)C2 (centres unmarked) [Compound 143]
88 | ≥ 300 °C | Cc1cnnc2c1C(=NNC(=N)N)CC(c1cc(Cl)ccc1F)C2.Cl (centres unmarked)
89 | 264 to 266 °C | Cc1ccnc2c1C(=NNC(=N)N)CC(c1cc(F)ccc1O)C2.Cl (centres unmarked)
90 | 287 °C (dec.) | Cc1n[nH]c2c1C(=NNC(=N)N)CC(c1cc(Cl)ccc1Cl)C2.Cl (centres unmarked)
91 | ≥ 300 °C | Cc1ccnc2c1C(=NNC(=N)N)CC(c1ccco1)C2.Cl (centres unmarked)
92 | 193 to 195 °C (dec.) | Cc1ccnc2c1C(=NNC(=N)NO)CC(c1c(Cl)cccc1Cl)C2.Cl (centres unmarked)

Reference: US6350749B1, “Aminoguanidine hydrazone derivatives, process for producing the same and drugs thereof” (Takeda Chemical Industries, Ltd., priority 1998, dated 2002)
